According to article PMC5383655, “Development of Automated Patch Clamp Technique to Investigate CFTR Chloride Channel Function” (Frontiers in Pharmacology, 2017):

Biological target: T1, cystic fibrosis transmembrane conductance regulator (CFTR), wt (Homo sapiens, UniProt P13569)
T1 construct: wt-CFTR stably expressed in BHK cells
Assay: automated whole-cell patch clamp, acute potentiation of current activated by […] Fsk on addition of […] compound
Format: cell-based

T1 sequence (P13569 whole entry): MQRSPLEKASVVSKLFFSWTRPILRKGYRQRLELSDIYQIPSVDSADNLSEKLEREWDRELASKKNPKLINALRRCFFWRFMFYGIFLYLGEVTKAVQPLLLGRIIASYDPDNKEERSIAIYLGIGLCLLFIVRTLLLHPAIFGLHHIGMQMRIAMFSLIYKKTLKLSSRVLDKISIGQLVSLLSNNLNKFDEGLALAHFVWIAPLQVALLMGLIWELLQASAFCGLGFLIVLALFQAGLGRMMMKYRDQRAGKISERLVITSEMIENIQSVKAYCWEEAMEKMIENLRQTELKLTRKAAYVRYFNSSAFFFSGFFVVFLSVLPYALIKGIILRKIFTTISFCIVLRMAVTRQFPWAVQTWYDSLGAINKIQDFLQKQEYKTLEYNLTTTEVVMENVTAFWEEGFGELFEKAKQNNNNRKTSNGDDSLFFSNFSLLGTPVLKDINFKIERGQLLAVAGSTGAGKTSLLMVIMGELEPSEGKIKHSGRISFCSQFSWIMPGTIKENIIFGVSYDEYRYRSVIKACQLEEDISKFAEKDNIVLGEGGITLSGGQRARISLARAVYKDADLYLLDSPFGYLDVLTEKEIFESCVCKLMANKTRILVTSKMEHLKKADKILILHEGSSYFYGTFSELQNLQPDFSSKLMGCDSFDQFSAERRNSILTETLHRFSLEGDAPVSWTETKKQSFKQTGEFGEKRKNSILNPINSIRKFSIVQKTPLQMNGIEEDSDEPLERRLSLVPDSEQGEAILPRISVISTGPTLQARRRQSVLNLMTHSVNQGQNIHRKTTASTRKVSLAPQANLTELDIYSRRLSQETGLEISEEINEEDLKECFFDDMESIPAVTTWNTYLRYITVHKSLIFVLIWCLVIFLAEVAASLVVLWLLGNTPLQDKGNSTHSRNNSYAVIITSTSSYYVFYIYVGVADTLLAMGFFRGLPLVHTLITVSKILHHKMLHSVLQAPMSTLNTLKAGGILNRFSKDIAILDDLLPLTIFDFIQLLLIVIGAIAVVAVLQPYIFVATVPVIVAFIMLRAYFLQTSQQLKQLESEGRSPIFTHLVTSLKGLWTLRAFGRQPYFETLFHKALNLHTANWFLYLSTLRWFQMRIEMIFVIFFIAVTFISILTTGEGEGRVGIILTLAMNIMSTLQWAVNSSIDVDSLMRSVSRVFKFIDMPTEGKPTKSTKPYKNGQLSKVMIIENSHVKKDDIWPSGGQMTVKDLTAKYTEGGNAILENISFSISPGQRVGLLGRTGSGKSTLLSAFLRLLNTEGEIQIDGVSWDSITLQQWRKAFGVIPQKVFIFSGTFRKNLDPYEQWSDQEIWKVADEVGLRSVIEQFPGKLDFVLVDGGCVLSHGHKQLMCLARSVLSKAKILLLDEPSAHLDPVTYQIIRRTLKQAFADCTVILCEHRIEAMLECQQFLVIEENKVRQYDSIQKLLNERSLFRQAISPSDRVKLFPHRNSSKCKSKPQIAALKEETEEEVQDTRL

With `CC(C)(C)c1cc(C(C)(C)C)c(NC(=O)c2c[nH]c3ccccc3c2=O)cc1O` [VX770] the “automated whole-cell patch clamp, acute potentiation of current activated by 1 μ” value was “clearly demonstrate potentiation of the Fsk-activated current by the potentiator VX770”.
